Measurements reported in patent EP0603240B1, “SAFENING HERBICIDAL PYRAZOLYLSULFONYLUREAS” (priority 1991, dated 1993).

Experiments:
corn [1] = assay: Example 20, Procedure II: Herbicide No. 1 + EPTC or ERADICANE EXTRA with Antidote Nos. 5 and 15; assay type: in vivo
Description: (§1) Containers were filled and compacted with a fumigated silt loam top soil to a depth of about 1.3 cm from the top of the container. A first container was designated as an untreated control, a second container was designated as a herbicide control, and a third container was designated as a herbicide + antidote test container. Each of the containers was seeded with a crop species. A measured amount of herbicide dispersed or dissolved in acetone was applied to a measured quantity of soil. To this same quantity of soil treated with herbicide, there was added a measured amount of antidote dispersed or dissolved in acetone. The quantity of soil treated with the herbicide and antidote was thoroughly mixed to incorporate the herbicide and antidote in the soil uniformly. The seed bed in the third container of soil was covered with the soil treated with the herbicide and antidote and the container was leveled. For each test series, the seed beds of the first and second containers were likewise covered by soil layers. the cover layer of the first container was not treated with herbicide or antidote.
(§2) The containers were then placed on a bench in a greenhouse and sub-irrigated as required for the duration of the test. […] Plant response is measured in terms of percent injury. Antidote efficacy is indicated as the difference in plant injury by the herbicide(s) without the antidote and with the antidote.
This procedure is the same as Procedure I, but modified in the manner that after incorporation of the chemicals (herbicide and antidote) the containers with the covered seedbed were treated with an initial overhead irrigation equivalent to 0.6 cm rainfall, then subsequently sub-irrigated as required on greenhouse benches.
This example describes experiments designed to test two generally efficacious antidotal compounds, i.e., Antidote Nos. 5 and 15, against the herbicidal action of the sulfonylurea compound, Herbicide No. 1, and the commercial herbicides EPTC (Herbicide No. 4) and ERADICANE® EXTRA (EPTC + R-29148, Antidote No. 5). Procedure II above was used in conducting these experiments. Formulations of EPTC and ERADICANE EXTRA were applied onto soil cover layers (to be applied over seed beds), followed by sequential pipetting of Herbicide No. 1 and Antidote No. 15. The soil was mixed to homogeneity and spread over the seed beds followed by 0.6 cm of overhead irrigation.

corn [2] = assay: Example 25, greenhouse post-emergence test: Antidote Nos. 1 and 2 against Herbicide Nos. 1-3; assay type: in vivo, Corn (Pioneer 3424 variety); details: for % Inhibition Corn: no herbicide; for inhibition at 0.25 g/ha / inhibition at 0.74 g/ha / inhibition at 2.5 g/ha / inhibition at 0.07 g/ha: Zea mays
Description: Additional tests were conducted in the greenhouse in order to evaluate the antidotal efficacy of Antidote Nos. 1 (dichlormid) and 2 (naphthalic anhydride) in protecting corn from the herbicidal activity of Herbicide Nos. 1-3 (i.e., NC-319, NC-319 EX and NC-311, respectively). The chemicals were tested in both preemergence and post-emergence modes of application. The herbicides were prepared and applied as wettable powders; dichlormid was applied as an emulsifiable concentrate, while the naphthalic anhydride was applied as a coating on the corn seed prior to planting.
Corn seeds (Pioneer 3424 variety) were planted in alluvial soil containing compost and fertilizer in pots 12 cm. in diameter. Test chemicals were applied with a spray gun at the spray volume rate of 11.2 l/ha at the time of seeding in the preemergence tests and seven (7) days after seeding in the post-emergence tests, when the check (control) plants were at the 16-20 cm., 3.0-3.2 leaf stage, and naphthalic anhydride coated seed grown plants were at the 14-16 cm., 2.8-3.0 leaf stage.
Test data from the preemergence tests are shown in Table 25A and from the post-emergence tests in Table 25B. In the tables, the concentration of chemicals is shown in terms of active ingredient in grams per hectare (G/ha); concentrations of the naphthalic anhydride were not measured per se, but were present as in conventional, normally-coated applications. Corn injury is shown in terms of percent inhibition of growth.

[3] = system: velvetleaf (Abutilon theophrasti); assay: Example 4, Procedure I: Antidote Nos. 15 and 16 against Herbicide No. 1; assay type: in vivo
Description: as §1, §2
In the series of greenhouse tests described below, for routine screening purposes the herbicide/antidote compositions were tested in crop/weed combinations involving corn as the crop and either or both of the weeds barnyardgrass (Echinochloa crusgalli), a monocotyledonous weed, and velvetleaf (Abutilon theophrasti), a dicotyledonous weed. In the tables below, these weeds are indicated by the symbols "BYG" and "VL", respectively.
This example describes tests with Antidote Nos. 15 and 16 to safen Herbicide No. 1 according to Procedure I using corn and the weeds barnyardgrass and velvetleaf as the test plants.

How did the “% Injury Corn” value (corn [1]; Herbicide No.1 0.56 kg/ha + ERADICANE EXTRA 2.24 kg/ha) turn out when `COC(=O)c1c(Cl)nn(C)c1S(=O)(=O)NC(=O)Nc1nc(OC)cc(OC)n1` [No.1] was run?
The value was 55%.

What about the “% Injury Corn” value (corn [1]; Herbicide No.1 0.56 kg/ha + ERADICANE EXTRA 4.48 kg/ha) of the same molecule?
Its value is 65%.

And the “% Injury Corn” value (corn [1]; Herbicide No.1 0.56 kg/ha + ERADICANE EXTRA 6.72 kg/ha)?
Its value is 75%.

What about the “% Injury Corn” value (corn [1]; Herbicide No.1 0.56 kg/ha + No. 4 2.24 kg/ha, no antidote) of the same molecule?
The value was 75%.

What about the “% Injury Corn” value (corn [1]; Herbicide No.1 0.56 kg/ha + No. 4 4.48 kg/ha, no antidote) of the same molecule?
The value was 35%.

What about the “% Injury Corn” value (corn [1]; Herbicide No.1 0.56 kg/ha + No. 4 6.72 kg/ha, no antidote) of the same molecule?
Its value is 85%.

And the “% Injury Corn” value (corn [1]; Herbicide No.1 0.56 kg/ha alone)?
Its value is 70%.

And the “% Injury Corn” value (corn [1]; Herbicide No.1 2.24 kg/ha + ERADICANE EXTRA 2.24 kg/ha)?
Its value is 90%.

What about the “% Injury Corn” value (corn [1]; Herbicide No.1 2.24 kg/ha + ERADICANE EXTRA 4.48 kg/ha) of the same molecule?
Its value is 85%.

What about the “% Injury Corn” value (corn [1]; Herbicide No.1 2.24 kg/ha + ERADICANE EXTRA 6.72 kg/ha) of the same molecule?
The value was 95%.

And the “% Injury Corn” value (corn [1]; Herbicide No.1 2.24 kg/ha + No. 4 2.24 kg/ha, no antidote)?
The value was 90%.

And the “% Injury Corn” value (corn [1]; Herbicide No.1 2.24 kg/ha + No. 4 4.48 kg/ha, no antidote)?
Its value is 70%.

What about the “% Injury Corn” value (corn [1]; Herbicide No.1 2.24 kg/ha + No. 4 6.72 kg/ha, no antidote) of the same molecule?
Its value is 90%.

What about the “% Injury Corn” value (corn [1]; Herbicide No.1 2.24 kg/ha alone) of the same molecule?
The value was 85%.

`O=C1OC(=O)c2cccc3cccc1c23` [compound 2] was tested. Which “% Inhibition Corn” value (corn [2]; Antidote alone as seed treatment (concentration not measured)) did it give?
Its value is 14.5%.

What about the inhibition at 0.25 g/ha (corn [2]; Antidote as seed treatment (concentration not measured) with Herbicide No. 1 at 0.25 G/ha) of the same molecule?
Its inhibition at 0.25 g/ha is 14.1%.

And the inhibition at 0.74 g/ha (corn [2]; Antidote as seed treatment (concentration not measured) with Herbicide No. 1 at 0.74 G/ha)?
The inhibition at 0.74 g/ha was 27.3%.

And the inhibition at 2.5 g/ha (corn [2]; Antidote as seed treatment (concentration not measured) with Herbicide No. 1 at 2.5 G/ha)?
Its inhibition at 2.5 g/ha is 16.7%.

What about the inhibition at 0.25 g/ha (corn [2]; Antidote as seed treatment (concentration not measured) with Herbicide No. 2 at 0.25 G/ha) of the same molecule?
The inhibition at 0.25 g/ha was 8%.

And the inhibition at 0.74 g/ha (corn [2]; Antidote as seed treatment (concentration not measured) with Herbicide No. 2 at 0.74 G/ha)?
Its inhibition at 0.74 g/ha is 24.9%.

And the inhibition at 2.5 g/ha (corn [2]; Antidote as seed treatment (concentration not measured) with Herbicide No. 2 at 2.5 G/ha)?
The inhibition at 2.5 g/ha was 19%.

What about the inhibition at 0.07 g/ha (corn [2]; Antidote as seed treatment (concentration not measured) with Herbicide No. 3 at 0.07 G/ha) of the same molecule?
The inhibition at 0.07 g/ha was 20.4%.

What about the inhibition at 0.25 g/ha (corn [2]; Antidote as seed treatment (concentration not measured) with Herbicide No. 3 at 0.25 G/ha) of the same molecule?
Its inhibition at 0.25 g/ha is 33.7%.

And the inhibition at 0.74 g/ha (corn [2]; Antidote as seed treatment (concentration not measured) with Herbicide No. 3 at 0.74 G/ha)?
Its inhibition at 0.74 g/ha is 58.8%.

With `C=CCN(CC=C)C(=O)C(Cl)Cl` [compound 1] as the molecule, how does the “% Inhibition Corn” value (corn [2]; Antidote alone (rate printed as -)) read?
The value was 1.4%.

What about the inhibition at 0.25 g/ha (corn [2]; Antidote at 7.41 G/ha with Herbicide No. 1 at 0.25 G/ha) of the same molecule?
Its inhibition at 0.25 g/ha is 16.1%.

What about the inhibition at 0.74 g/ha (corn [2]; Antidote at 7.41 G/ha with Herbicide No. 1 at 0.74 G/ha) of the same molecule?
Its inhibition at 0.74 g/ha is 16.3%.

And the inhibition at 2.5 g/ha (corn [2]; Antidote at 7.41 G/ha with Herbicide No. 1 at 2.5 G/ha)?
Its inhibition at 2.5 g/ha is 22.4%.

And the inhibition at 0.25 g/ha (corn [2]; Antidote at 7.41 G/ha with Herbicide No. 2 at 0.25 G/ha)?
The inhibition at 0.25 g/ha was 17.6%.

What about the inhibition at 0.74 g/ha (corn [2]; Antidote at 7.41 G/ha with Herbicide No. 2 at 0.74 G/ha) of the same molecule?
Its inhibition at 0.74 g/ha is 15.9%.

And the inhibition at 2.5 g/ha (corn [2]; Antidote at 7.41 G/ha with Herbicide No. 2 at 2.5 G/ha)?
Its inhibition at 2.5 g/ha is 23.7%.

And the inhibition at 0.07 g/ha (corn [2]; Antidote at 7.41 G/ha with Herbicide No. 3 at 0.07 G/ha)?
Its inhibition at 0.07 g/ha is 39.8%.

What about the inhibition at 0.25 g/ha (corn [2]; Antidote at 7.41 G/ha with Herbicide No. 3 at 0.25 G/ha) of the same molecule?
The inhibition at 0.25 g/ha was 73.9%.

What about the inhibition at 0.74 g/ha (corn [2]; Antidote at 7.41 G/ha with Herbicide No. 3 at 0.74 G/ha) of the same molecule?
Its inhibition at 0.74 g/ha is 73.1%.

How did the “% Injury VL” value ([3]; Herb. No. 1 4.48 kg/ha + antidote 0.56 kg/ha) turn out when `CC1(C)OC(c2ccco2)CN1C(=O)C(Cl)Cl` (centres unmarked) [compound 15] was run?
Its value is 95%.

And the “% Injury VL” value ([3]; Herb. No. 1 4.48 kg/ha + antidote 2.24 kg/ha)?
Its value is 95%.

And the “% Injury VL” value ([3]; Herb. No. 1 6.72 kg/ha + antidote 0.56 kg/ha)?
The value was 95%.

And the “% Injury VL” value ([3]; Herb. No. 1 6.72 kg/ha + antidote 2.24 kg/ha)?
Its value is 95%.
